From patent publication US8779142B2, “Azabicyclo compound and salt thereof” (Taiho Pharmaceutical Co., Ltd., priority 2009, dated 2014)
Where two headings read alike, the source gives them in different places.

Columns and labels:
[1] = target: human HSP90 alpha protein (HSP90 N-terminal protein, amino acids 2-236) (Homo sapiens (Human), UniProt P07900); assay: Measurement of HSP90-binding activity (AlphaScreen competitive assay, biotin-labeled geldanamycin); conditions: read-out: HSP-binding activity IC50
[2] = tested on: SK-BR-3 cells; assay: Measurement of cell growth inhibition (crystal violet staining method); format: cell-based
[3] = concentration inhibiting binding of biotin-labeled geldanamycin (40 nM) to purified HSP90 to 50% of control
[4] = Homo sapiens, breast cancer SK-BR-3 cells, 72 hr culture with test substance

Compound | IC50 [1] [nM] | IC50 [2] [nM] | IC50 [1, 3] [nM] | IC50 [2, 4] [nM] | IC50 ([2]; breast cancer SK-BR-3 cells, 72 hr culture with test substance) [nM]
4-{4-(4-(1-(Hydroxyethyl)-1H-pyrazol-4-yl)-1H-imidazol-1-yl)-3-isopropyl-1H-pyrazolo[3,4-b]pyridin-1-yl}-2-(isopropyl)benzamide [Example 148] | 400 | 240 | – | – | –
CCNc1cc(C(N)=O)ccc1-n1nc(C(F)(F)F)c2c(-n3cnc(-c4cnn(CC)c4)c3)ccnc21 [Example 185, 4-{4-(4-(1-Ethyl-1H-pyrazol-4-yl)-1H-imidazol-1-yl)-3-(trifluoromethyl)-1H-pyrazolo[3,4-b]pyridin-1-yl}-3-(ethylamino)benzamide] | – | – | 190 | 210 | –
CC(C)c1nn(-c2ccc(C(N)=O)c(NC3CCC(O)CC3)c2)c2nccc(-n3cnc(-c4ccsc4)c3)c12 (stereo not shown) [Example 91] | – | – | 430 | – | 70
CC(C)c1nn(-c2ccc(C(N)=O)c(NC3CCN(C)CC3)c2)c2nccc(-c3cnc4ccccc4c3)c12 [Example 24, 4-{3-Isopropyl-4-(quinolin-3-yl)-1H-pyrazolo[3,4-b]pyridin-1-yl}-2-(1-methylpiperidin-4-ylamino)benzamide] | – | – | 230 | 30 | –
Cc1cn(-c2ccc(C(N)=O)c(N[C@H]3CC[C@H](O)CC3)c2)c2nccc(-c3cnc4ccccc4c3)c12 [Example 40, 2-(Trans-4-hydroxycyclohexylamino)-4-{3-methyl-4-(quinolin-3-yl)-1H-pyrrolo[2,3-b]pyridin-1-yl}benzamide] | – | – | 270 | 90 | –
COc1cccc2c1ccn2-c1ccc(C(N)=O)c(NC2CCC(O)CC2)c1 (stereo not shown) [Comparative Example 2, reference compound] | – | – | > 100000 | > 10000 | –
CC(C)c1nn(-c2ccc(C(N)=O)c(NCCN3CCCC3)c2)c2nccc(-n3cnc(-c4cnn(C)c4)c3)c12 [Example 115, 4-{3-Isopropyl-4-(4-(1-methyl-1H-pyrazol-4-yl)-1H-imidazol-1-yl)-1H-pyrazolo[3,4-b]pyridin-1-yl}-2-{2-(pyrrolidin-1-yl)ethylamino}benzamide] | – | – | 160 | 240 | –
CC(C)c1nn(-c2ccc(C(N)=O)cc2NCC(F)F)c2nccc(-n3cnc(-c4cnn(C)c4)c3)c12 [Example 123, 3-(2,2-Difluoroethylamino)4-{3-isopropyl-4-(4-(1-methyl-1H-pyrazol-4-yl)-1H-imidazol-1-yl)-1H-pyrazolo[3,4-b]pyridin-1-yl}benzamide] | – | – | 190 | 120 | –
Cc1cn(-c2ccc(C(N)=O)c(NCCCCO)c2)c2nccc(-c3cnc4ccccc4c3)c12 [Example 55, 2-(4-Hydroxybutylamino)-4-{3-methyl-4-(quinolin-3-yl)-1H-pyrrolo[2,3-b]pyridin-1-yl}benzamide] | – | – | 2810 | 920 | –
CCCc1cn(-c2ccc(C(N)=O)c(N[C@H]3CC[C@H](O)CC3)c2)c2nccc(-c3cnc4ccccc4c3)c12 [Example 45, 2-(Trans-4-hydroxycyclohexylamino)-4-{3-propyl-4-(quinolin-3-yl)-1H-pyrrolo[2,3-b]pyridin-1-yl}benzamide] | – | – | 90 | 10 | –
CC(C)c1nn(-c2ccc(C(N)=O)cc2C#N)c2nccc(-n3cnc(-c4cnn(C)c4)c3)c12 [Example 124, 3-Cyano-4-{3-isopropyl-4-(4-(1-methyl-1H-pyrazol-4-yl)-1H-imidazol-1-yl)-1H-pyrazolo[3,4-b]pyridin-1-yl}benzamide] | – | – | 350 | 590 | –
CC(C)c1nn(-c2ccc(C(N)=O)c(NCCCN(C)C)c2)c2nccc(-c3cnc4ccccc4c3)c12 [Example 29, 2-{3-(Dimethylamino)propylamino}-4-{3-isopropyl-4-(quinolin-3-yl)-1H-pyrazolo[3,4-b]pyridin-1-yl}benzamide] | – | – | 320 | 240 | –
2-(Trans-4-methylsulfonamidocyclohexylamino)-4-{3-methyl-4-(quinolin-3-yl)-1H-pyrrolo[2,3-b]pyridin-1-yl}benzamide [Example 63] | 470 | 170 | – | – | –
CCNc1c(C(N)=O)ccc(-n2nc(C(C)C)c3c(-n4cnc(-c5cnn(C)c5)c4)ccnc32)c1C [Example 132, 2-(Ethylamino)-4-{3-isopropyl-4-(4-(1-methyl-1H-pyrazol-4-yl)-1H-imidazol-1-yl)-1H-pyrazolo[3,4-b]pyridin-1-yl}-3-methylbenzamide] | – | – | 120 | 100 | –
CCc1c(-n2nc(C(C)C)c3c(-n4cnc(-c5cnn(C)c5)c4)ccnc32)ccc(C(N)=O)c1F [Example 131, 3-Ethyl-2-fluoro-4-{3-isopropyl-4-(4-(1-methyl-1H-pyrazol-4-yl)-1H-imidazol-1-yl)-1H-pyrazolo[3,4-b]pyridin-1-yl}benzamide] | – | – | 700 | 920 | –
Cc1cc(C(N)=O)ccc1-n1nc(C(C)C)c2c(-n3cnc(-c4ccncc4)c3)ccnc21 [Example 149, 4-{3-Isopropyl-4-(4-(pyridin-4-yl)-1H-imidazol-1-yl)-1H-pyrazolo[3,4-b]pyridin-1-yl}-3-methylbenzamide] | – | – | 390 | 690 | –
Cn1cc(-c2cn(-c3ccnc4c3c(C(F)(F)F)nn4-c3ccc(C(N)=O)c(N)c3)cn2)cn1 [Example 157, 2-Amino-4-{4-(4-(1-methyl-1H-pyrazol-4-yl)-1H-imidazol-1-yl)-3-(trifluoromethyl)-1H-pyrazolo[3,4-b]pyridin-1-yl}benzamide] | – | – | 130 | 190 | –
C=Cc1cn(-c2ccc(C(N)=O)c(N[C@H]3CC[C@H](O)CC3)c2)c2nccc(-c3cnc4ccccc4c3)c12 [Example 46, 2-(Trans-4-hydroxycyclohexylamino)-4-{3-vinyl-4-(quinolin-3-yl)-1H-pyrrolo[2,3-b]pyridin-1-yl}benzamide] | – | – | 150 | 20 | –
CC(C)c1nn(-c2ccc(C(N)=O)cc2Cl)c2nccc(-c3cnc4ccccc4c3)c12 [Example 38, 3-Chloro-4-{3-isopropyl-4-(quinolin-3-yl)-1H-pyrazolo[3,4-b]pyridin-1-yl}benzamide] | – | – | 510 | 670 | –
CCNc1cc(-n2nc(C(F)(F)F)c3c(-n4cnc(-c5cnn(C)c5)c4)ccnc32)ccc1C(N)=O [Example 161, 2-(Ethylamino)-4-{4-(4-(1-methyl-1H-pyrazol-4-yl)-1H-imidazol-1-yl)-3-(trifluoromethyl)-1H-pyrazolo[3,4-b]pyridin-1-yl}benzamide] | – | – | 170 | 60 | –
CC(C)c1nn(-c2ccc(C(N)=O)c(N[C@H]3CC[C@H](O)CC3)c2)c2nccc(-n3cnc(-c4ccccc4)c3)c12 [Example 37, 2-(Trans-4-hydroxycyclohexylamino)-4-{3-isopropyl-4-(4-phenyl-1H-imidazol-1-yl)-1H-pyrazolo[3,4-b]pyridin-1-yl}benzamide] | – | – | 250 | 100 | –
NC(=O)c1ccc(-n2nc(C(F)(F)F)c3c(-n4cnc(-c5cccnc5)c4)ccnc32)c(NC2CCCC2)c1 [Example 183, 3-(Cyclopentylamino)-4-{4-(4-(pyridin-3-yl)-1H-imidazol-1-yl)-3-(trifluoromethyl)-1H-pyrazolo[3,4-b]pyridin-1-yl}benzamide] | – | – | 330 | 150 | –
Cn1cc(-c2cn(-c3ccnc4c3c(C(F)(F)F)nn4-c3ccc(C(N)=O)cc3C#N)cn2)cn1 [Example 169, 3-Cyano-4-{4-(4-(1-methyl-1H-pyrazol-4-yl)-1H-imidazol-1-yl)-3-(trifluoromethyl)-1H-pyrazolo[3,4-b]pyridin-1-yl}benzamide] | – | – | 230 | 270 | –
